ChEMBL document CHEMBL1201862, “PubChem BioAssay data set” (2004)
Activity calls are given as the source filed them.

What was measured:
[1] = target: Peroxisome proliferator-activated receptor gamma/Nuclear receptor coactivator 1 (Homo sapiens, UniProt P37231); assay: (§1) TR-FRET dose response biochemical High Throughput Screening assay for agonists of the steroid receptor coactivator 1 (SRC-1) recruitment by the peroxisome proliferator-activated receptor gamma (PPAR gamma): non-selective agonists. [Related pubchem assays (depositor defined):AID1300, AID1808, AID504735, AID631]; assay type: protein assay
[2] = target: Peroxisome proliferator-activated receptor gamma/Nuclear receptor coactivator 3 (Homo sapiens, UniProt P37231); assay: as §1, with “3 (SRC-3)” for “1 (SRC-1)”, “assays: 1301 (Confirmation screen.), 1048 (Primary screen.)]” for “assays (depositor defined):AID1300, AID1808, AID504735, AID631]”; assay type: functional
[3] = target: Peroxisome proliferator-activated receptor gamma/Nuclear receptor coactivator 2 (Homo sapiens, UniProt P37231); assay: TR-FRET dose response biochemical High Throughput Screening assay for agonists of the steroid receptor coactivator 2 (SRC-2) recruitment by the peroxisome proliferator-activated receptor gamma (PPAR gamma): non-selective agonists. [Related pubchem assays: 1297, 1032 ]; assay type: functional
[4] = target: T1, Replicative DNA helicase DnaB (Mycobacterium tuberculosis, UniProt P9WMR3); assay: DnaB intein splicing inhibitors, dose response, biochemical, cell-free fluorescence (AID 449749); assay type: functional
T1 sequence (P9WMR3 whole entry): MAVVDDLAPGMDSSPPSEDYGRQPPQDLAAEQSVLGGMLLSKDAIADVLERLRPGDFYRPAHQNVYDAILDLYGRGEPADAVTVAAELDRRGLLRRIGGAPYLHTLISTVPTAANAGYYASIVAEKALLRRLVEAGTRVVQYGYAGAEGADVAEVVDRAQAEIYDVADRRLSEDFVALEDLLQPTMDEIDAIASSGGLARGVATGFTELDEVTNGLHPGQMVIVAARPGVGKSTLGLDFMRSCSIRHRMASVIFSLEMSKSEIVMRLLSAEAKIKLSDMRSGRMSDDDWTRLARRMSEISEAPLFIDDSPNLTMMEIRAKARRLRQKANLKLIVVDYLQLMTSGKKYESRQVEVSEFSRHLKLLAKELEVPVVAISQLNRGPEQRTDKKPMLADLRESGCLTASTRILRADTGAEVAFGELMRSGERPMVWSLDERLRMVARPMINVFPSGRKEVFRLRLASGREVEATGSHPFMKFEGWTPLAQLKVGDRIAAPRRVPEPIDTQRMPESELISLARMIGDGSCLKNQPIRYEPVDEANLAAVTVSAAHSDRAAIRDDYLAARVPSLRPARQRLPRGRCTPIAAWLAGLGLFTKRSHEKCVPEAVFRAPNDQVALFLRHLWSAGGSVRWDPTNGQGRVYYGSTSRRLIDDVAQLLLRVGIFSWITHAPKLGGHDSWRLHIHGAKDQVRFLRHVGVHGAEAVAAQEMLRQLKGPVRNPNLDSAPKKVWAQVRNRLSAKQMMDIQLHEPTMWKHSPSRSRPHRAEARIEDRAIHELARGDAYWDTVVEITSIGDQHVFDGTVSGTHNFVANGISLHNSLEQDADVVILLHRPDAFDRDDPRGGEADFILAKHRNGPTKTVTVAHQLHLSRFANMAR

[5] = target: T2, Protein RecA (Mycobacterium tuberculosis, UniProt P9WHJ3); assay: Fluorescence Cell-Free Homogeneous Dose Retest to Identify Inhibitors of RecA-Intein Splicing Activity. [Related pubchem assays (depositor defined):AID2097, AID2223, AID489010, AID492950]; assay type: functional
T2 sequence (P9WHJ3 whole entry): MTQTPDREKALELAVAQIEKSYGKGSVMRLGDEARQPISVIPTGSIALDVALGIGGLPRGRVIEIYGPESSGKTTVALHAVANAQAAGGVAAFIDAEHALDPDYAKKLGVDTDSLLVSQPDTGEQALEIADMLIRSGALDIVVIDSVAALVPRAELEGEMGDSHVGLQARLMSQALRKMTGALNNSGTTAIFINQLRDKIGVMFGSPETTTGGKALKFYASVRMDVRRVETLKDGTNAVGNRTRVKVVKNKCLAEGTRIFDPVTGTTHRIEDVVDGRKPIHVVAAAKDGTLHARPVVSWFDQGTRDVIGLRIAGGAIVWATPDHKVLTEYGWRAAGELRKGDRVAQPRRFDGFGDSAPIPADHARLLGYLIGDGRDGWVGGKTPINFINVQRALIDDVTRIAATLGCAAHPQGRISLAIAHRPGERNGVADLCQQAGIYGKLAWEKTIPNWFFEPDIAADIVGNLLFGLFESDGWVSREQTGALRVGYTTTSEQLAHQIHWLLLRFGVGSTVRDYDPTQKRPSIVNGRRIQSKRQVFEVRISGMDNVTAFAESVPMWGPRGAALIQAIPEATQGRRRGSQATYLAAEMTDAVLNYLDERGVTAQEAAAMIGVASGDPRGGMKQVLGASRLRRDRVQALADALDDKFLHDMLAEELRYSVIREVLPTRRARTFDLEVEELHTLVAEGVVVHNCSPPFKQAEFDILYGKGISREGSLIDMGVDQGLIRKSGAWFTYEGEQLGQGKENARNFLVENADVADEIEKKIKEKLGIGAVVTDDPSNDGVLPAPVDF

[6] = tested on: BJ; assay: cytotoxicity toward BJ-TERT fibroblasts, dose response, cell-based, RAS-independent, luminescence (AID 1933); assay type: functional; details: Homo sapiens
[7] = tested on: BJ; assay: cells; assay type: functional, cell-based; details: Homo sapiens
[8] = tested on: BJ; assay: cytotoxicity toward BJ-TERT-LT-ST fibroblasts, dose response, cell-based, RAS-independent, luminescence (AID 1935); assay type: functional; details: Homo sapiens;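 further: BJ fibroblasts immortalized with TERT plus LT and ST oncogenes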
[9] = cytotoxicity toward DRD oncogenic fibroblasts, dose response, cell-based, non-viral oncogenic, luminescence (AID 1934); assay type: functional; details: Homo sapiens
[10] = target: T3, Microphthalmia-associated transcription factor (Homo sapiens, UniProt O75030); assay: TRPM1 promoter luciferase signal decrease, dose response, MITF inhibitor project, cell-based, SK-MEL-5, cherry-picked, set 3 (AID 493073); assay type: functional
T3 sequence (O75030 whole entry): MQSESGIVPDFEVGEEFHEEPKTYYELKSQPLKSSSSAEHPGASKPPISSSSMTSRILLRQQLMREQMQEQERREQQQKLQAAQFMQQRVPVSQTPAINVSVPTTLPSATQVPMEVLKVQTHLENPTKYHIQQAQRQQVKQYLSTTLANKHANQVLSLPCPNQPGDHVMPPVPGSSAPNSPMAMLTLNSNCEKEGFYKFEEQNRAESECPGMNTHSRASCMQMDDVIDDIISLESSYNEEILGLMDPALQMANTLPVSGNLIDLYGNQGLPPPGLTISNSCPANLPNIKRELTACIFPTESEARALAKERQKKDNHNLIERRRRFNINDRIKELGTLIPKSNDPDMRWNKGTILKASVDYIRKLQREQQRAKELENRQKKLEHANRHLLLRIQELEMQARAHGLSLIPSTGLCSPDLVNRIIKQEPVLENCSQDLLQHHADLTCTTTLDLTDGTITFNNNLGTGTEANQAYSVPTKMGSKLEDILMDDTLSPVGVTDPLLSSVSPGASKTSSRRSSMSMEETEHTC

[11] = tested on: A-375; assay: MITF: Counter assay: A375 proliferation Measured in Cell-Based System Using Plate Reader - 2084-03_Inhibitor_Dose_DryPowder_Activity. [Related pubchem assays (depositor defined):AID488944]; assay type: functional; details: Homo sapiens
[12] = insulin promoter down-regulators in MIN6 cells, imaging, high-content screening, mouse beta cells (AID 1628); assay type: functional
[13] = cytotoxicity in MIN6 insulinoma cells, dose response, cytotoxicity control, cell-based, mouse insulinoma (AID 2122); assay type: functional;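 further: confirmatory high-throughput counterscreen run to flag cytotoxic compounds; mouse MIN-6 beta cells carrying an insulin promoter eGFP reporter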
[14] = target: T4, High affinity choline transporter 1 (Homo sapiens, UniProt Q9GZV3); assay: CHT inhibitors, dose response, cell-based, 5-point CRC, membrane potential dye (AID 504840); assay type: functional
T4 sequence (Q9GZV3 whole entry): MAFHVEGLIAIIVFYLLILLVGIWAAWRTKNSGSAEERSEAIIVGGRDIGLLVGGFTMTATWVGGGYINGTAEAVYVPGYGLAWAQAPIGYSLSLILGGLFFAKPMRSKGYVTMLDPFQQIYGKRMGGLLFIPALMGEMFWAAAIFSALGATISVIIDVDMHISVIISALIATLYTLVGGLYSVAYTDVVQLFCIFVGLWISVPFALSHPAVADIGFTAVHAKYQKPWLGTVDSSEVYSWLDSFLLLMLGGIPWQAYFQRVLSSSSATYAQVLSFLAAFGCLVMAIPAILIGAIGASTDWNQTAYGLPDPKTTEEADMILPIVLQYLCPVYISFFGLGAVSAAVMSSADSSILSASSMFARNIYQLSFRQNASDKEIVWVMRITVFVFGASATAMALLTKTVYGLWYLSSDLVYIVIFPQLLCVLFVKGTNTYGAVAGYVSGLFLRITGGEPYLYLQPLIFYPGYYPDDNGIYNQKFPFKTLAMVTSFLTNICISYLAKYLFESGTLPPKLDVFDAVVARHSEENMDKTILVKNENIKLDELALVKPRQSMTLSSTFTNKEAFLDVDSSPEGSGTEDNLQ

[15] = target: T5, Heat shock factor protein 1 (Mus musculus, UniProt P38532); assay: HSF1 potentiators in luciferase reporter cells, confirmation, cell-based, NIH3T3, luminescence, dose retest (AID 435004); assay type: functional;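 further: stress induced by proteasome inhibitor MG132 added 30 min after compound; luciferase reporter driven by HSF1 response element in NIH3T3 cells; actives raise luminescence as potentiators of the MG132 stress response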
T5 sequence (P38532 whole entry): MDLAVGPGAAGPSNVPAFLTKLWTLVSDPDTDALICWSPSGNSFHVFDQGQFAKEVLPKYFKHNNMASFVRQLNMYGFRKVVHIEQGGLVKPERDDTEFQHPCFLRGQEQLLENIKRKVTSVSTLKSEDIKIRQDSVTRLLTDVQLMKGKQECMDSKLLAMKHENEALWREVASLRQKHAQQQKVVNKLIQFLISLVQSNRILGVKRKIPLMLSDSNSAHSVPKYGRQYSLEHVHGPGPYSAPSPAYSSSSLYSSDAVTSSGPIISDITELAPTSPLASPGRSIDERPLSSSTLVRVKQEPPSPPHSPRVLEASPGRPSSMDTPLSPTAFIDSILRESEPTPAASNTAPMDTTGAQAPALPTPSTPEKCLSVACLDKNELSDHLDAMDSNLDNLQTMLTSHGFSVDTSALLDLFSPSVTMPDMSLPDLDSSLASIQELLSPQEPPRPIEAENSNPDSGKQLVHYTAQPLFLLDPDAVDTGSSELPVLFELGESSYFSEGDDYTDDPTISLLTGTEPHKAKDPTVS

[16] = target: T6, Corticotropin-releasing factor receptor 2/Corticotropin-releasing factor-binding protein (Homo sapiens, UniProt P24387+Q13324); assay: Dose Response confirmation of uHTS hits for small molecule antagonists of the CRF-binding protein and CRF-R2 receptor complex.; assay type: functional; details: read-out: IC50_Mean
T6 sequence (Q13324 whole entry): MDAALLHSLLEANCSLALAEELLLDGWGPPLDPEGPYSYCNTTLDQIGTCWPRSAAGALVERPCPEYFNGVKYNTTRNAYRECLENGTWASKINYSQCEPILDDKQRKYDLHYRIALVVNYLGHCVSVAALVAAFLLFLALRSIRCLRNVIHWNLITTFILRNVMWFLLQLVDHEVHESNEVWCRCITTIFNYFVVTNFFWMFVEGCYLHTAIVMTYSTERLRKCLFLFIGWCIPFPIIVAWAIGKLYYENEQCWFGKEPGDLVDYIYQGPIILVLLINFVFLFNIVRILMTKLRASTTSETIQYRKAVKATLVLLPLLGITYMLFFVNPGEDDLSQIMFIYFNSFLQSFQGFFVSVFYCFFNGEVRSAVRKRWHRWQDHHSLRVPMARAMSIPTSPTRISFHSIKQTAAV
T6 sequence (P24387 whole entry): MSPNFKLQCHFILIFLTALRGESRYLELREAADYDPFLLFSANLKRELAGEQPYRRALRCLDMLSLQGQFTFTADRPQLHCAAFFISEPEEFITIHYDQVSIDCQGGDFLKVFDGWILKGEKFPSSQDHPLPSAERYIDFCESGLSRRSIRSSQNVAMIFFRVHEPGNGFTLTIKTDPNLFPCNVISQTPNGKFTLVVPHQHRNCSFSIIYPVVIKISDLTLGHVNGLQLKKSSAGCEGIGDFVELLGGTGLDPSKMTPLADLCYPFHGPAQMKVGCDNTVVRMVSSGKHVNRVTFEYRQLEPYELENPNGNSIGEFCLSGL

[17] = target: T6, Corticotropin-releasing factor receptor 2/Corticotropin-releasing factor-binding protein; assay: activators of CRF receptor 2 with binding protein – uHTS hits, confirmation (AID 602473); assay type: functional; details: read-out: EC50_Mean

Peroxisome proliferator-activated receptor gamma/Nuclear receptor coactivator 1, sequence (P37231 whole entry): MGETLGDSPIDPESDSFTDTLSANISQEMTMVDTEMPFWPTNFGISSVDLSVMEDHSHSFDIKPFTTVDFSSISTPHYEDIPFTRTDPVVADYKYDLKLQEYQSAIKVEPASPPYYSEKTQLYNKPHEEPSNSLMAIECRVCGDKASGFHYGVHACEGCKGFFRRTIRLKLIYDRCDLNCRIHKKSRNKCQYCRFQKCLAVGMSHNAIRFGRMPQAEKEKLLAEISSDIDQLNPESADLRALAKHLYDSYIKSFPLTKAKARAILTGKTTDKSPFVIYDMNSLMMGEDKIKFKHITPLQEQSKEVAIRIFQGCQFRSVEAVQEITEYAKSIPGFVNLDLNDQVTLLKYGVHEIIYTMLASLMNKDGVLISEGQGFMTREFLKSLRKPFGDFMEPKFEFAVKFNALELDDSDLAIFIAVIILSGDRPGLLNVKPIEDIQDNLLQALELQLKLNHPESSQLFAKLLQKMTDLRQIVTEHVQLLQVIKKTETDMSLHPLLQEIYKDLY
Peroxisome proliferator-activated receptor gamma/Nuclear receptor coactivator 1, sequence (Q15788 whole entry, further chain): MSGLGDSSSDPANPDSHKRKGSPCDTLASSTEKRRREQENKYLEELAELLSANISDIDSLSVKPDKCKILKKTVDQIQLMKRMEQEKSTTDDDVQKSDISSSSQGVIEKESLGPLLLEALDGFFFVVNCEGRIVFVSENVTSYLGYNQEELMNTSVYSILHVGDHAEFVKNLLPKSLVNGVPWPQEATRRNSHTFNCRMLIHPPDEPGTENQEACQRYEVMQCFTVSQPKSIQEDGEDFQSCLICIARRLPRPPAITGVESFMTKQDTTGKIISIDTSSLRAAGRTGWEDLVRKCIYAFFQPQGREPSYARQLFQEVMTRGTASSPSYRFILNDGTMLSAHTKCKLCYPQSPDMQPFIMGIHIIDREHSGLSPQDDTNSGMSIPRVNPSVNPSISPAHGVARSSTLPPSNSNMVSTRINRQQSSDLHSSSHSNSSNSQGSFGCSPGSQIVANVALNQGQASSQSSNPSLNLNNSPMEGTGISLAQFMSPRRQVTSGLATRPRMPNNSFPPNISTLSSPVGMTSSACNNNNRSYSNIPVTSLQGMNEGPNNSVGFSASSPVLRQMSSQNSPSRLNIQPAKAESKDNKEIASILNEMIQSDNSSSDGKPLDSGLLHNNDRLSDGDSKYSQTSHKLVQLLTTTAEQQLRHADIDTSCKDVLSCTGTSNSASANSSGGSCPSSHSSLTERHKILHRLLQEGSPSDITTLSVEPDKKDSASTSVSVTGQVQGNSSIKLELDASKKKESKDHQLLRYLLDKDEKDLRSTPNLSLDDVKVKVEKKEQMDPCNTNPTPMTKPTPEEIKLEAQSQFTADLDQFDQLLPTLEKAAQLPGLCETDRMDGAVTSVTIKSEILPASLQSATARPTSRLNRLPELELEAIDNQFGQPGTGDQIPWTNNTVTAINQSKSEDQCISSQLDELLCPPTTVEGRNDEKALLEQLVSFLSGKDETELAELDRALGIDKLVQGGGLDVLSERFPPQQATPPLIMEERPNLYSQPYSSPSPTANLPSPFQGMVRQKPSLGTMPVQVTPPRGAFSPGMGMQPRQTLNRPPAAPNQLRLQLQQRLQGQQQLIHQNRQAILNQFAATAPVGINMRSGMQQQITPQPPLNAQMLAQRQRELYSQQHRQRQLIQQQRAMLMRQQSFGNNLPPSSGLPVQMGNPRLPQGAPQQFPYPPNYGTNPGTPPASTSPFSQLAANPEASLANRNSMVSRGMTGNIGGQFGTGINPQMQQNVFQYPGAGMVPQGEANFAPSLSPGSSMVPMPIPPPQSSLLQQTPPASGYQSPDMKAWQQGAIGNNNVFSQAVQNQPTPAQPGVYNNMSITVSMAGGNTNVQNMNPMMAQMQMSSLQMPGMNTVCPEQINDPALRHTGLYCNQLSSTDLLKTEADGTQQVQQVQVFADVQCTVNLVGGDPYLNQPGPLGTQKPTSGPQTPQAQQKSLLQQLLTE
Peroxisome proliferator-activated receptor gamma/Nuclear receptor coactivator 2, sequence (P37231 whole entry): as the sequence (P37231 whole entry) above
Peroxisome proliferator-activated receptor gamma/Nuclear receptor coactivator 2, sequence (Q15596 whole entry, further chain): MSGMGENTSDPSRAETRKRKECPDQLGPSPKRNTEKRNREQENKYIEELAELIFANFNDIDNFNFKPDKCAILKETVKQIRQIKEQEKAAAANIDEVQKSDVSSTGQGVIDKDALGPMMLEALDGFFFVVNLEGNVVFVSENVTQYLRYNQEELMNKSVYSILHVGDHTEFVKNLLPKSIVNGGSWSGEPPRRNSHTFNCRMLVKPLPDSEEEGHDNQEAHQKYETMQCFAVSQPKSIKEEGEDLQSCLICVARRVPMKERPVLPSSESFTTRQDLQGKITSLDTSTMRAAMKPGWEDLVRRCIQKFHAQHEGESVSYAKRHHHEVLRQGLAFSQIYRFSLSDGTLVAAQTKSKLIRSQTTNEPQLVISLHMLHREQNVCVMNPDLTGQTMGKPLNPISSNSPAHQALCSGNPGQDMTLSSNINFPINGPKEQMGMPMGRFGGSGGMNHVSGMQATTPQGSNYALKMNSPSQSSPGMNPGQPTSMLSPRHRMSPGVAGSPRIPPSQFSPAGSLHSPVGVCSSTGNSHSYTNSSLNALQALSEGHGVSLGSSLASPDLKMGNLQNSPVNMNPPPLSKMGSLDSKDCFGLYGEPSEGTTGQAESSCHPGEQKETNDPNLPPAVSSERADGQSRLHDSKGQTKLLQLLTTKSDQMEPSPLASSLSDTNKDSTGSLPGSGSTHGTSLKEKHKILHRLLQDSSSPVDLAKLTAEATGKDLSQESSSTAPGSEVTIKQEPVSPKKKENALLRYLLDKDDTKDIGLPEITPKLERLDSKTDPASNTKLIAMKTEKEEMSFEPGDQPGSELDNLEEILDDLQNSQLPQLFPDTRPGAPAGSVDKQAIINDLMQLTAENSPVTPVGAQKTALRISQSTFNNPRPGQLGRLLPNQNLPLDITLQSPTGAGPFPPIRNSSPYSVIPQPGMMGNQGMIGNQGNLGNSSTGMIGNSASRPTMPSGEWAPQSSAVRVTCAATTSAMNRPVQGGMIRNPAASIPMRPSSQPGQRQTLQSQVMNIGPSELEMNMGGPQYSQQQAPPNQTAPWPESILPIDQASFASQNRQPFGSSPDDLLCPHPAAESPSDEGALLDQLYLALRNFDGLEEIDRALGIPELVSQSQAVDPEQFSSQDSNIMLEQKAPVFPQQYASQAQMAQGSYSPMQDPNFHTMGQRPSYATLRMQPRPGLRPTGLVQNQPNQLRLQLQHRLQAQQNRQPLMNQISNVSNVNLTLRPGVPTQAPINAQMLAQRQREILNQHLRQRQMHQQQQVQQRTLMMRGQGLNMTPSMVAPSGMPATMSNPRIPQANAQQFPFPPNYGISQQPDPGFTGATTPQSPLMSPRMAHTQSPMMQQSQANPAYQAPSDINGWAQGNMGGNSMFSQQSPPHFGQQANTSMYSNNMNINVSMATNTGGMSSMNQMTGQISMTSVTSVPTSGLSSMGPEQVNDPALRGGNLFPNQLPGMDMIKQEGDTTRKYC

## O=C(CSc1c2c(nc3cc(Cl)ccc13)CCCC2)NCc1ccco1
[1]
  EC50: > 79.4 µM (inactive)
[2]
  EC50: > 79.4 µM (not active)
[3]
  EC50: > 79.4 µM (not active)
[4]
  AC50: 27.9 µM (active)
[5]
  EC50: 7.14 µM (active)

## COc1ccc(N(Cc2cc(O)nc3ccccc23)C(=O)CCl)cc1
[6]
  EC50: 1.95 µM (active)
[7]
  EC50: 5.45 µM (inconclusive)
[8]
  EC50: 4.68 µM (active)
[9]
  EC50: 4.96 µM (inconclusive)
[10]
  AC50: 10.9 µM (active)
[4]
  AC50: 10.3 µM (active)
[5]
  EC50: 1.59 µM (active)
[11]
  AC50: 27.1 µM (active)

## CC1(C)CC2CC(C)(CN2c2ncnc3ccccc23)C1 (configuration not stated)
[12]
  IC50: 1.7 µM (active)
[13]
  IC50: 1.16 µM (active)
[14]
  IC50: 6.74 µM (active)

## CC(=O)C1=C(O)C(=O)N(c2nccs2)C1c1ccccc1 (configuration not stated)
[1]
  EC50: 86.4 µM (inactive)
[2]
  EC50: > 79.4 µM (not active)
[3]
  EC50: 35.4 µM (not active)
[15]
  EC50: > 260 µM (inactive)
[16]
  IC50: > 47.1 µM (inactive)
[17]
  EC50: > 53 µM (inactive)
